In patent US20230193192A1 (priority 2021, published 2023):
In brackets after ≈: the same amount, converted by molar mass.

Experiments:
NIH B38 = conditions: cited from earlier work
LVS = conditions: standard conditions; cited from earlier work
F. novicida = format: cell-based, Francisella novicida; conditions: for MIC: pH 7.1
F. tularensis LVS = format: cell-based, Francisella tularensis holarctica Live Vaccine Strain; conditions: for MIC: pH 7.1
[1] = tested on: Galleria mellonella (waxworm) larvae; conditions: in vivo
[2] = tested on: Francisella tularensis holarctica Live Vaccine Strain; conditions: cited from earlier work
Francisella philomiragia = format: cell-based
[3] = tested on: Francisella tularensis tularensis Schu4; conditions: cited from earlier work
Francisella novicida [4] = conditions: cited from earlier work
Francisella novicida [5] = conditions: cited from earlier work; remark: listed apart in the source

Molecule	MIC (NIH B38)	MIC (LVS)	This study Colistin (F. novicida)	MIC (F. novicida)	This study Colistin (F. tularensis LVS)	MIC (F. tularensis LVS)	Toxicity, survival of waxworms [1]	Kirby Bauer Colistin [2]	This study Colistin (Francisella philomiragia)	This study Polymyxin B (F. novicida)	This study Polymyxin B (F. tularensis LVS)	Kirby Bauer Polymyxin B [3]	Kirby Bauer Polymyxin B (Francisella novicida [4])	This study Polymyxin B (Francisella philomiragia)	MIC (Francisella novicida [5])
[H]/N=C(/N)N[C@H]1[C@H](O)[C@@H](O)[C@H](O[C@@H]2O[C@@H](C)[C@](O)(C=O)[C@H]2O[C@@H]2O[C@@H](CO)[C@H](O)[C@@H](O)[C@@H]2NC)[C@@H](N/C(N)=N\[H])[C@@H]1O [Streptomycin, D-Streptamine, O-2-deoxy-2-(methylamino)-α-L-glucopyranosyl-(1->2)-O-5-deoxy-3-C-formyl-α-L-lyxofuranosyl-(1->4)-N1,N3-bis(aminoiminomethyl)-]	0.25 µg/mL (≈ 0.43 µM)	0.38 µg/mL (≈ 0.653 µM)													
Colistin			~1024	1024 µg/mL	> 1024	>1024 µg/mL	killed the waxworms	0 mm	> 1024						
Polymyxin B				256 µg/mL		256 µg/mL	killed the waxworms			256	256	10 mm	19 mm	1024	38 µg/mL
